Consider seven molecules from patent US20100323955A1, “METHODS FOR TREATING OBESITY AND OBESITY RELATED DISEASES AND DISORDERS” (AMYLIN PHARMACEUTICALS, INC., priority 2007, published 2010).

Experiment [1] can be described thus: Example 4: amylin and phentermine in DIO rats, body weight and body composition. Format: in vivo, rat. Particulars: after two weeks, FIG. 11C. On the procedure: The combination of amylin and catecholaminergic agonist, phentermine, were also tested for effects on changes in body weight and body composition. Phentermine is classically referred to as a catecholaminergic agonist as it actually hits NA/5-HT receptors. DIO male rats were fattened and divided into four treatment groups, as described above. Each group was implanted with subcutaneous osmotic mini-pumps and/or inserted with an oral gavage, designed to deliver vehicle, phentermine (10 mg/kg/day), amylin (100 μg/kg/day) or phentermine (10 mg/kg/day)+amylin (100 μg/kg/day) for a 14 day period. The mini-pump contained either vehicle (50% DMSO in water) or amylin while the oral gavage administered either sterile water or phentermine Body weight was recorded daily and body composition was measured prior to and after drug treatment using NMR.

A short description of experiment [2]: Example 8: 24-week randomized, double-blind clinical study of pramlintide and metreleptin in overweight and obese subjects. Format: in vivo, human. Particulars: for rate of change in body weight, late rate (12-20 weeks): 24-week study, FIG. 24. On the procedure:
To evaluate inter alia the safety, tolerability and effect of the combination of an amylin agonist (pramlintide) and a leptin (metreleptin) on changes in body weight, a 24-week, randomized, double-blind, active-drug-controlled, multicenter study was conducted under USFDA approved protocols. Secondary objectives of the study were the determination of the pharmacokinetics of pramlintide and leptin, waist circumference, rate of change in body weight, and patient reported outcomes including for example without limitation perception of well-being related to weight change and mood. The study enrolled overweight and obese subjects with defined BMI ([…]), with enrollment statistics as provided in Table 2. […] Subjects treated with pramlintide/metreleptin lost an average of 25 pounds from the start of the 24-week study compared with an average of 17 pounds for subjects treated with pramlintide alone.
In an initial lead-in phase, all subjects received dietary instructions and treatment with pramlintide at 180 mcg BID for two weeks, followed by pramlintide at 360 mcg BID for two weeks. Subjects who completed the 4-week lead-in period and who lost 2-8 percent body weight during this period were eligible to continue the study. The term “enrolled” (Table 2) refers to subjects (N=177) receiving at least one dose of pramlintide during the lead-in period. The term “non-randomized” refers to subjects not continuing in the study past the lead-in period. The term “evaluable” refers to subjects who completed Visit 9 (Week 16) study procedures and adequately complied with the study protocol.
After the 4-week lead-in period, for the remaining 20 weeks of the study the subjects were randomized in a 2:2:1 ratio to one of three groups with BID treatment of 1) pramlintide 360 mcg/metreleptin 5 mg (“Leptin+Pramlintide”); 2) pramlintide 360 mcg/placebo (“Pramlintide”); or 3) metreleptin 5 mg/placebo (“Leptin”).

Experiment [3] in a line: Example 5: amylin and rimonabant (CB-1 antagonist) in DIO rats, body weight and body composition. The format is in vivo, rat. The note with it: after two weeks, FIG. 12C. The protocol:
These rats were developed by Barry Levin from a line of Crl:CD®(SD)BR rats that are prone to become obese on a diet relatively high in fat and energy. They were housed individually in shoebox cages at 22 C in a 12/12-hour light dark cycle. […] Rats were habituated to oral gavage for 1 week prior to treatment. Rimonabant was administered at a range of doses (0.1, 0.3, 1.0, 3.0. 10 mg/kg/day) by oral gavage. Amylin (dissolved in 50% DMSO sterile water) or vehicle was administered by mini-pump (100 μg/kg/day). Rimonabant was always delivered just prior to lights out. Food intake and body weight were measured at 1 and 2 weeks post-treatment. Body composition was measured prior to and after drug treatment using NMR (Echo Medical Systems, Houston, Tex.). For body composition measurements, rats were briefly placed (˜1 min) in a well-ventilated plexiglass tube that was then inserted into a specialized rodent NMR machine. Rats were scanned prior to pump implantation and on the final day of the experiment. This enabled the calculation of changes in actual grams of fat and dry lean tissue (e.g., grams of body fat after treatment−grams of body fat at baseline=change in grams of body fat) and changes in % body composition for fat and dry lean tissue (e.g., % body fat after treatment−% body fat at baseline=change in % body fat).

Experiment [4] can be described thus: Example 4: amylin and sibutramine in DIO rats, body weight and body composition. Particulars: after two weeks, FIG. 10C. Format: in vivo, rat. The protocol: (§1) Rat amylin was dissolved in 50% DMSO in sterile water and sibutramine was dissolved in sterile water. Each group was implanted with subcutaneous osmotic mini-pumps designed to deliver vehicle, sibutramine (3 mg/kg/day) or amylin (100 μg/kg/day) for a 14 day period. Body weight and food intake were recorded daily. Body composition was measured prior to and after drug treatment using NMR (Echo Medical Systems, Houston, Tex.). For body composition measurements, rats were briefly placed (˜1 min) in a well-ventilated plexiglass tube that was then inserted into a specialized rodent NMR machine. Rats were scanned prior to pump implantation and on the final day of the experiment. This enabled the calculation of changes in actual grams of fat and dry lean tissue (e.g., grams of body fat after treatment−grams of body fat at baseline=change in grams of body fat) and changes in % body composition for fat and dry lean tissue (e.g., % body fat after treatment−% body fat at baseline=change in % body fat).

The nature of experiment [5]: Example 3: serum leptin levels (immunoassay) in DIO prone and normal HSD rats after amylin. Format: in vivo, rat. The note with it: amylin 100 μg/kg/day, 14 days, FIG. 8. The protocol: DIO prone and normal HSD rats were divided into three treatment groups. Two groups were implanted with subcutaneous osmotic mini-pumps (DURECT Corp., Cupertino, Calif.) designed to deliver vehicle or amylin (100 μg/kg/day) and the third group was pair-fed to the amount consumed by the amylin-treated group for a 14 day period. Serum leptin levels were determined by immunoassays using a commercial kit (Linco Research, Inc., St. Charles, Mo.). […] Thus, DIO prone rats are hyper-leptinemic.

Experiment [6] can be described thus: Example 7: amylin and PYY(3-36) in DIO rats, body weight and body composition. The format is in vivo, rat. The note with it: after two weeks, FIG. 16C. The protocol:
as §1, with “Food intake and body weight” for “Rat amylin”, “was” for “was dissolved in 50% DMSO in sterile water and sibutramine was dissolved in sterile water. Each group was implanted with subcutaneous osmotic mini-pumps designed to deliver vehicle, sibutramine (3 mg/kg/day) or amylin (100 μg/kg/day) for a 14 day period. Body weight and food intake were”

Experiment [7] is described as follows: Example 6: amylin and exendin-4 analog in DIO rats, body weight and body composition. Format: in vivo, rat. Particulars: after two weeks, FIG. 15C. On the procedure: […]. Prior to drug administration rats had typically attained a mean body weight of 500 g Exendin-4 analog was administered by minipump at a range of doses (0.3, 1, 3, 10, 30 μg/kg/day). Amylin (dissolved in 50% DMSO in water) or vehicle was administered by mini-pump (100 μg/kg/day). Body weight and food intake was recorded daily. Body composition was measured prior to and after drug treatment using NMR (Echo Medical Systems, Houston, Tex.). For body composition measurements, rats were briefly placed (˜1 min) in a well-ventilated plexiglass tube that was then inserted into a specialized rodent NMR machine. Rats were scanned prior to pump implantation and on the final day of the experiment. This enabled the calculation of changes in actual grams of fat and dry lean tissue (e.g., grams of body fat after treatment−grams of body fat at baseline=change in grams of body fat) and changes in % body composition for fat and dry lean tissue (e.g., % body fat after treatment−% body fat at baseline=change in % body fat).

On to `CC(C)(N)Cc1ccccc1` [phentermine, reference compound], for which, in experiment [1], the “changes in body protein (lean (protein) mass)” value (“changes in body protein” for short) is on record as “unchanged or tended to be lost”.

With `CC[C@H](C)[C@H](NC(=O)[C@@H]1CCCN1C(=O)CNC(=O)[C@H](Cc1ccccc1)NC(=O)[C@H](CC(N)=O)NC(=O)[C@H](CC(N)=O)NC(=O)[C@H](CO)NC(=O)[C@H](CO)NC(=O)[C@H](Cc1c[nH]cn1)NC(=O)[C@@H](NC(=O)[C@H](CC(C)C)NC(=O)[C@H](Cc1ccccc1)NC(=O)[C@H](CC(N)=O)NC(=O)[C@H](C)NC(=O)[C@H](CC(C)C)NC(=O)[C@H](CCCNC(=N)N)NC(=O)[C@H](CCC(N)=O)NC(=O)[C@@H](NC(=O)[C@H](C)NC(=O)[C@@H]1CSSC[C@H](NC(=O)[C@@H](N)CCCCN)C(=O)N[C@@H](CC(N)=O)C(=O)N[C@@H]([C@@H](C)O)C(=O)N[C@@H](C)C(=O)N[C@@H]([C@@H](C)O)C(=O)N1)[C@@H](C)O)C(C)C)C(=O)N[C@@H](CC(C)C)C(=O)N1CCC[C@H]1C(=O)N1CCC[C@H]1C(=O)N[C@H](C(=O)N[C@@H](CC(N)=O)C(=O)N[C@H](C(=O)NCC(=O)N[C@@H](CO)C(=O)N[C@@H](CC(N)=O)C(=O)N[C@H](C(=O)N[C@@H](Cc1ccc(O)cc1)C(N)=O)[C@@H](C)O)C(C)C)[C@@H](C)O` [pramlintide, ^25,28,29Pro-h-amylin], in experiment [2] (4-week lead-in, all subjects received pramlintide 180 then 360 mcg BID, columns name the later randomization groups), the “Mean Change in Body Weight (kg) over lead-in period” value was -3.65 kg. Also, the “rate of change in body weight, late rate (12-20 weeks)” value in experiment [2] is “approached a late rate of zero”. For the same molecule, the “body weight reduced on average at the end of the 24-week study” value in experiment [2] (overweight and obese subjects, pramlintide 360 mcg BID, metreleptin 5 mg BID, p<0.001) is 8.4%.

In the case of `Cc1c(C(=O)NN2CCCCC2)nn(-c2ccc(Cl)cc2Cl)c1-c1ccc(Cl)cc1` [rimonabant, reference compound], the “changes in body protein” value in experiment [3] is given as “relatively equivalent increase in lean (protein) mass”.

`CC(C)CC(N(C)C)C1(c2ccc(Cl)cc2)CCC1` (stereo not drawn) [sibutramine, reference compound]: the “changes in body protein” value in experiment [4] is listed as “relatively unchanged”.

On to Rat amylin, for which the “plasma (serum) leptin levels, DIO prone animals” value in experiment [5] (DIO prone rats) is “significantly reduced”. For the same molecule, the “plasma (serum) leptin levels, normal animals” value in experiment [5] (normal HSD rats) is on record as “significantly reduced”. The “changes in body protein” value in experiment [6] was “increase in lean (protein) mass”; in experiment [4], “increase in lean (protein) mass”; in experiment [7], “relatively equivalent increase in lean (protein) mass”; in experiment [1], “preserved lean (protein) mass”; in experiment [3], “relatively equivalent increase in lean (protein) mass”.

As for ^14Leu-exendin-4 [Exendin-4 analog], the “changes in body protein” value in experiment [7] is recorded as “relatively equivalent increase in lean (protein) mass”.

With “recombinant methionyl human leptin [metreleptin]”, the “rate of change in body weight, late rate (12-20 weeks)” value in experiment [2] is “approached a late rate of zero”.
